Results: patent US20240360081A1, “SULFONAMIDE OREXIN RECEPTOR AGONISTS AND USES THEREOF” (Jazz Pharmaceuticals Ireland Limited, priority 2021, published 2024)

Target: T1, human recombinant OX2 (hOX2) receptor expressed in CHO cells (Homo sapiens, UniProt O43614)
T1 construct: host or cells: CHO cells (hOX2-CHO)
T1 sequence (O43614 1-444): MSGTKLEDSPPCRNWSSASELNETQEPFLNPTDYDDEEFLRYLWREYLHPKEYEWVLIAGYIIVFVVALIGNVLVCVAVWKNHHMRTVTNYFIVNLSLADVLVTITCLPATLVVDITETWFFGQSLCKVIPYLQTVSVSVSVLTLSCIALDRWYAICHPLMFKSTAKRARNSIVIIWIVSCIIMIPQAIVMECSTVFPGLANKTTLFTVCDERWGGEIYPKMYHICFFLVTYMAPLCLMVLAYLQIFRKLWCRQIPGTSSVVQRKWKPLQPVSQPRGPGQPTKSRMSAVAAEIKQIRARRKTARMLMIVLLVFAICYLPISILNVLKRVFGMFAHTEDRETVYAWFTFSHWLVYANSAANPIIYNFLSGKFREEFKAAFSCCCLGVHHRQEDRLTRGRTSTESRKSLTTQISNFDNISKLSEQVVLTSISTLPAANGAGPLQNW
Test: IP-1 accumulation assay (IP-One HTRF) in hOX2-CHO cells
Assay type: cell-based
Conditions: 60 min at 37° C., 11 points CRC, response as % of maximal OX-A response
How it was run: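 CHO cells expressing hOX2, 20,000 cells/well in HBSS with 20 mM HEPES pH 7.4, 50 mM LiCl, 0.1% BSA; 11-point compound series, 0.5% DMSO final, 60 min at 37 °C. IP-1 by HTRF (665/615 ratio) after 60 min at room temperature, as % of maximal OX-A response; EC50 by four-parameter logistic fit, mean of ≥2 experiments in duplicate.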

Compound	EC50 [nM]
Cc1cc(C)c(=O)n(C(CNS(C)(=O)=O)COC2CCN(c3ncc(F)cn3)CC2)c1 (stereo not drawn) [Example 2ay, N-[2-(3,5-dimethyl-2-oxo-1,2-dihydropyridin-1-yl)-3-{[1-(5-fluoropyrimidin-2-yl)piperidin-4-yl]oxy}propyl]methanesulfonamide]	> 10000
Cc1cc(C)c(=O)n(C(CNS(C)(=O)=O)COC2CCC3(CCOC3)CC2)c1 (stereo not drawn) [Example 2bd, N-[2-(3,5-dimethyl-2-oxo-1,2-dihydropyridin-1-yl)-3-{2-oxaspiro[4.5]decan-8-yloxy}propyl]methanesulfonamide]	> 10000
Cc1ccn(C(CNS(C)(=O)=O)CO[C@H]2CC[C@@H](c3ccccc3)CC2)c(=O)c1 (stereo partly drawn) [Example 2d, N-[2-(4-methyl-2-oxo-1,2-dihydropyridin-1-yl)-3-{[(CIS)-4-phenylcyclohexyl]oxy}propyl]methanesulfonamide]	1000 to 10000
CS(=O)(=O)NCC(CO[C@H]1CC[C@@H](c2ccccc2)CC1)n1cccc(C#N)c1=O (stereo partly drawn) [Example 2e, N-[2-(3-cyano-2-oxo-1,2-dihydropyridin-1-yl)-3-{[(CIS)-4-phenylcyclohexyl]oxy}propyl]methanesulfonamide]	1000 to 10000
CS(=O)(=O)NCC(CO[C@H]1CC[C@@H](c2ccccc2)CC1)n1cccc(F)c1=O (stereo partly drawn) [Example 2f, N-[2-(3-fluoro-2-oxo-1,2-dihydropyridin-1-yl)-3-{[(CIS)-4-phenylcyclohexyl]oxy}propyl]methanesulfonamide]	1000 to 10000
CS(=O)(=O)NCC(CO[C@H]1CC[C@@H](c2ccccc2)CC1)n1cc(C(F)(F)F)ccc1=O (stereo partly drawn) [Example 2l, N-{2-[2-oxo-5-(trifluoromethyl)-1,2-dihydropyridin-1-yl]-3-{[(CIS)-4-phenylcyclohexyl]oxy}propyl}methanesulfonamide]	> 10000
CS(=O)(=O)NCC(CO[C@H]1CC[C@@H](c2ccccc2)CC1)n1cc(Cl)ccc1=O (stereo partly drawn) [Example 2p, N-[2-(5-chloro-2-oxo-1,2-dihydropyridin-1-yl)-3-{[(CIS)-4-phenylcyclohexyl]oxy}propyl]methanesulfonamide]	1000 to 10000
CS(=O)(=O)NCC(CO[C@H]1CC[C@@H](c2ccccc2)CC1)n1cc(OC(F)F)ccc1=O (stereo partly drawn) [Example 2q, N-{2-[5-(difluoromethoxy)-2-oxo-1,2-dihydropyridin-1-yl]-3-{[(CIS)-4-phenylcyclohexyl]oxy}propyl}methanesulfonamide]	1000 to 10000
CS(=O)(=O)NCC(CO[C@H]1CC[C@@H](c2ccccc2)CC1)n1cc(C#N)ccc1=O (stereo partly drawn) [Example 2r, N-[2-(5-cyano-2-oxo-1,2-dihydropyridin-1-yl)-3-{[(CIS)-4-phenylcyclohexyl]oxy}propyl]methanesulfonamide]	1000 to 10000
COc1ccc(=O)n(C(CNS(C)(=O)=O)CO[C@H]2CC[C@@H](c3ccccc3)CC2)c1 (stereo partly drawn) [Example 2v, N-[2-(5-methoxy-2-oxo-1,2-dihydropyridin-1-yl)-3-{[(CIS)-4-phenylcyclohexyl]oxy}propyl]methanesulfonamide]	1000 to 10000
CS(=O)(=O)NCC(CO[C@H]1CC[C@@H](c2ccccc2)CC1)n1ccc(C(F)(F)F)cc1=O (stereo partly drawn) [Example 2w, N-{2-[2-oxo-4-(trifluoromethyl)-1,2-dihydropyridin-1-yl]-3-{[(CIS)-4-phenylcyclohexyl]oxy}propyl}methanesulfonamide]	> 10000
CS(=O)(=O)NCC(CO[C@H]1CC[C@@H](c2ccccc2)CC1)n1ccc(C#N)cc1=O (stereo partly drawn) [Example 2y, N-[2-(4-cyano-2-oxo-1,2-dihydropyridin-1-yl)-3-{[(CIS)-4-phenylcyclohexyl]oxy}propyl]methanesulfonamide]	> 10000
CS(=O)(=O)NCC(CO[C@H]1CC[C@@H](c2ccccc2)CC1)n1ccc2cccnc21 (stereo partly drawn) [Example 2z, N-(2-{1H-pyrrolo[2,3-b]pyridin-1-yl}-3-{[(CIS)-4-phenylcyclohexyl]oxy}propyl)methanesulfonamide]	1000 to 10000
Cn1cccc(C(CNS(C)(=O)=O)CO[C@H]2CC[C@@H](c3ccccc3)CC2)c1=O (stereo partly drawn) [Example 4, N-[2-(1-methyl-2-oxo-1,2-dihydropyridin-3-yl)-3-{[(CIS)-4-phenylcyclohexyl]oxy}propyl]methanesulfonamide]	1000 to 10000
Cc1cc(C(CNS(C)(=O)=O)CO[C@H]2CC[C@@H](c3ccccc3)CC2)c(=O)n(C)c1 (stereo partly drawn) [Example 5a, N-[2-(1,5-dimethyl-2-oxo-1,2-dihydropyridin-3-yl)-3-{[(CIS)-4-phenylcyclohexyl]oxy}propyl]methanesulfonamide]	1000 to 10000
COc1ccn(C)c(=O)c1C(CNS(C)(=O)=O)CO[C@H]1CC[C@@H](c2ccccc2)CC1 (stereo partly drawn) [Example 5b, N-[2-(4-methoxy-1-methyl-2-oxo-1,2-dihydropyridin-3-yl)-3-{[(CIS)-4-phenylcyclohexyl]oxy}propyl]methanesulfonamide]	1000 to 10000
CN(C)S(=O)(=O)NCC(CO[C@H]1CC[C@@H](c2cccc(F)c2)CC1)c1cccc2c1nnn2C (stereo partly drawn) [Example 5h, dimethyl({[2-(1-methyl-1H-1,2,3-benzotriazol-4-yl)-3-{[(CIS)-4-(3-fluorophenyl)cyclohexyl]oxy}propyl]sulfamoyl})amine]	1000 to 10000
Cc1cc(C)nc(C(CNS(C)(=O)=O)CO[C@H]2CC[C@@H](c3ccccc3)CC2)c1 (stereo partly drawn) [Example 5i, N-[2-(4,6-dimethylpyridin-2-yl)-3-{[(CIS)-4-phenylcyclohexyl]oxy}propyl]methanesulfonamide]	1000 to 10000

Results, then the compound that gave them:

EC50 [nM]	Compound
< 100	CCC[C@H]1CC[C@@H](OCC(CNS(=O)(=O)N(C)C)n2cc(C)cc(C)c2=O)CC1 (stereo partly drawn) [Example 2bb, 1-{1-[(dimethylsulfamoyl)amino]-3-{[(CIS)-4-propylcyclohexyl]oxy}propan-2-yl}-3,5-dimethyl-1,2-dihydropyridin-2-one]
100 to 1000	Cc1cc(C)c(=O)n(C(CNS(=O)(=O)N(C)C)CO[C@H]2CC[C@@H](C3CC3)CC2)c1 (stereo partly drawn) [Example 2bc, 1-{1-[(dimethylsulfamoyl)amino]-3-{[(CIS)-4-cyclopropylcyclohexyl]oxy}propan-2-yl}-3,5-dimethyl-1,2-dihydropyridin-2-one]
1000 to 10000	CS(=O)(=O)NCC(CO[C@H]1CC[C@@H](c2ccccc2)CC1)n1cccc(C(F)(F)F)c1=O (stereo partly drawn) [Example 2c, N-{2-[2-oxo-3-(trifluoromethyl)-1,2-dihydropyridin-1-yl]-3-{[(CIS)-4-phenylcyclohexyl]oxy}propyl}methanesulfonamide]
100 to 1000	Cc1ccc(=O)n(C(CNS(C)(=O)=O)CO[C@H]2CC[C@@H](c3ccccc3)CC2)c1 (stereo partly drawn) [Example 2i, N-[2-(5-methyl-2-oxo-1,2-dihydropyridin-1-yl)-3-{[(CIS)-4-phenylcyclohexyl]oxy}propyl]methanesulfonamide]
100 to 1000	Cc1ccn(C(CNS(C)(=O)=O)CO[C@H]2CC[C@@H](c3ccccc3)CC2)c(=O)c1C (stereo partly drawn) [Example 2m, N-[2-(3,4-dimethyl-2-oxo-1,2-dihydropyridin-1-yl)-3-{[(CIS)-4-phenylcyclohexyl]oxy}propyl]methanesulfonamide]
< 100	Cc1cc(C)c(=O)n(C(CNS(C)(=O)=O)CO[C@H]2CC[C@@H](c3ccccc3)CC2)c1 (stereo partly drawn) [Example 2s, N-[2-(3,5-dimethyl-2-oxo-1,2-dihydropyridin-1-yl)-3-{[(CIS)-4-phenylcyclohexyl]oxy}propyl]methanesulfonamide]
100 to 1000	Cc1cc(Br)cn(C(CNS(C)(=O)=O)CO[C@H]2CC[C@@H](c3ccccc3)CC2)c1=O (stereo partly drawn) [Example 2x, N-[2-(5-bromo-3-methyl-2-oxo-1,2-dihydropyridin-1-yl)-3-{[(CIS)-4-phenylcyclohexyl]oxy}propyl]methanesulfonamide]
< 100	Cc1cc(C(CNS(=O)(=O)N(C)C)CO[C@H]2CC[C@@H](c3cccc(F)c3)CC2)c(=O)n(C(F)F)c1 (stereo partly drawn) [Example 5aa, 1-(difluoromethyl)-3-{1-[(dimethylsulfamoyl)amino]-3-{[(CIS)-4-(3-fluorophenyl)cyclohexyl]oxy}propan-2-yl}-5-methyl-1,2-dihydropyridin-2-one]
100 to 1000	Cc1cc(C(CNS(C)(=O)=O)CO[C@H]2CC[C@@H](c3cccc(F)c3)CC2)c(=O)n(CC#N)c1 (stereo partly drawn) [Example 5e, N-{2-[1-(cyanomethyl)-5-methyl-2-oxo-1,2-dihydropyridin-3-yl]-3-{[(CIS)-4-(3-fluorophenyl)cyclohexyl]oxy}propyl}methanesulfonamide]
100 to 1000	CS(=O)(=O)NCC(CO[C@H]1CC[C@@H](c2ccccc2)CC1)c1cccn2cnnc12 (stereo partly drawn) [Example 5f, N-(3-{[(CIS)-4-phenylcyclohexyl]oxy}-2-{[1,2,4]triazolo[4,3-a]pyridin-8-yl}propyl)methanesulfonamide]
100 to 1000	Cc1cc(C(CNS(=O)(=O)N(C)C)CO[C@H]2CC[C@@H](c3ccccc3)CC2)n2nccc2c1 (stereo partly drawn) [Example 5g, dimethyl[(2-{5-methylpyrazolo[1,5-a]pyridin-7-yl}-3-{[(CIS)-4-phenylcyclohexyl]oxy}propyl)sulfamoyl]amine]
< 100	Cc1cc(C)[n+]([O-])c(C(CNS(C)(=O)=O)CO[C@H]2CC[C@@H](c3ccccc3)CC2)c1 (stereo partly drawn) [Example 5j, 2-(1-methanesulfonamido-3-{[(CIS)-4-phenylcyclohexyl]oxy}propan-2-yl)-4,6-dimethylpyridin-1-ium-1-olate]
